Laboratory results from PubChem BioAssay AID330 (DTP/NCI, 2004).
Toxic doses and inconclusive results are not listed.

Test system: P388 leukemia ip, CD2F1 mice, survival T/C
Test: NCI In Vivo Anticancer Drug Screen. Data for tumor model P388 Leukemia (intraperitoneal) in CD2F1 (CDF1) mice
Settings: endpoint: median survival time, higher = longer survival
Summary of the method: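 Mice carrying the transplanted tumor received test compound or vehicle. Survival was recorded in each group, and the value is the treated-group measurement divided by that of the vehicle-treated control group.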

[1] = dose: 50.0 mg/kg/injection, schedule: Q01DX009 (ip), vehicle: saline with Tween-80
[2] = dose: 100.0 mg/kg/injection, schedule: Q01DX009 (ip), vehicle: saline with Tween-80
[3] = dose: 200.0 mg/kg/injection, schedule: Q01DX009 (ip), vehicle: saline with Tween-80
[4] = dose: 60.0 mg/kg/injection, schedule: Q01DX005 (ip), vehicle: saline with Tween-80
[5] = dose: 120.0 mg/kg/injection, schedule: Q01DX005 (ip), vehicle: saline with Tween-80
[6] = dose: 240.0 mg/kg/injection, schedule: Q01DX005 (ip), vehicle: saline with Tween-80
[7] = dose: 50.0 mg/kg/injection, schedule: Q01DX005 (ip), vehicle: saline with Tween-80
[8] = dose: 100.0 mg/kg/injection, schedule: Q01DX005 (ip), vehicle: saline with Tween-80
[9] = dose: 200.0 mg/kg/injection, schedule: Q01DX005 (ip), vehicle: saline with Tween-80

O=C1C=CC(=O)C1=Cc1ccc([N+](=O)[O-])cc1
T/C (dose: 2.5 mg/kg/injection, schedule: Q04DX002 (ip), vehicle: saline with Tween-80): 100 % of control
T/C (dose: 5.0 mg/kg/injection, schedule: Q04DX002 (ip), vehicle: saline with Tween-80): 104 % of control
T/C (dose: 10.0 mg/kg/injection, schedule: Q04DX002 (ip), vehicle: saline with Tween-80): 101 % of control
T/C (dose: 25.0 mg/kg/injection, schedule: Q04DX002 (ip), vehicle: saline with Tween-80): 96 % of control
T/C (dose: 50.0 mg/kg/injection, schedule: Q04DX002 (ip), vehicle: saline with Tween-80): 98 % of control

O=C1CN(c2ccccc2)C(=O)CN1/N=C/c1ccc[nH]1
T/C (dose: 6.25 mg/kg/injection, schedule: Q01DX005 (ip), vehicle: saline with Tween-80): 95 % of control
T/C (dose: 12.5 mg/kg/injection, schedule: Q01DX005 (ip), vehicle: saline with Tween-80): 100 % of control
T/C (dose: 25.0 mg/kg/injection, schedule: Q01DX005 (ip), vehicle: saline with Tween-80): 97 % of control

CN(C)c1ccc2c(SCC(=O)OCC(=O)[C@@]3(O)CC[C@H]4[C@@H]5CCC6=CC(=O)C=C[C@]6(C)[C@H]5C(=O)C[C@@]43C)c3ccc(N(C)C)cc3nc2c1
T/C (dose: 25.0 mg/kg/injection, schedule: Q01DX005 (ip), vehicle: Klucel (hydroxypropylcellulose) (HPC)): 113 % of control

CC(C)=CCCC(C)C1=C(O)C(=O)C(C)=CC1=O (configuration not stated)
T/C (dose: 12.5 mg/kg/injection, schedule: Q01DX005 (ip), vehicle: Klucel (hydroxypropylcellulose) (HPC)): 108 % of control

COc1ccc(OC(N)=O)c2ccccc12
T/C (dose: 25.0 mg/kg/injection, schedule: Q01DX001 (ip), vehicle: Klucel (hydroxypropylcellulose) (HPC)): 100 % of control
T/C (dose: 50.0 mg/kg/injection, schedule: Q01DX001 (ip), vehicle: Klucel (hydroxypropylcellulose) (HPC)): 100 % of control
T/C (dose: 100.0 mg/kg/injection, schedule: Q01DX001 (ip), vehicle: Klucel (hydroxypropylcellulose) (HPC)): 108 % of control

OCCOCCCl
T/C (dose: 100.0 mg/kg/injection, schedule: Q01DX009 (ip), vehicle: suspension in saline): 96 % of control
T/C (dose: 200.0 mg/kg/injection, schedule: Q01DX009 (ip), vehicle: suspension in saline): 109 % of control
T/C (dose: 400.0 mg/kg/injection, schedule: Q01DX009 (ip), vehicle: suspension in saline): 110 % of control

CC(C)CNCC(=O)Nc1ccc(-c2ccc(NC(=O)CNCC(C)C)cc2)cc1
T/C (dose: 50.0 mg/kg/injection, schedule: Q01DX005 (ip), vehicle: Klucel (hydroxypropylcellulose) (HPC)): 97 % of control
T/C (dose: 100.0 mg/kg/injection, schedule: Q01DX005 (ip), vehicle: Klucel (hydroxypropylcellulose) (HPC)): 97 % of control
T/C (dose: 200.0 mg/kg/injection, schedule: Q01DX005 (ip), vehicle: Klucel (hydroxypropylcellulose) (HPC)): 95 % of control

C=C(C#N)C1OC2OC(C)(C)OC2C1OCCCCCCCC (configuration not stated)
T/C (dose: 100.0 mg/kg/injection, schedule: Q04DX002 (ip), vehicle: saline with Tween-80): 106 % of control
T/C (dose: 200.0 mg/kg/injection, schedule: Q04DX002 (ip), vehicle: saline with Tween-80): 106 % of control

[O-][N+](=C1c2ccccc2-c2ccccc21)c1ccccc1
T/C (dose: 50.0 mg/kg/injection, schedule: Q04DX003 (ip), vehicle: saline): 109 % of control
T/C (dose: 100.0 mg/kg/injection, schedule: Q04DX003 (ip), vehicle: saline): 118 % of control
T/C (dose: 200.0 mg/kg/injection, schedule: Q04DX003 (ip), vehicle: saline): 95 % of control

CN1C(=O)c2ccccc2Cc2c(NCc3ccccc3)ncnc21
T/C [1]: 108 % of control
T/C [2]: 104 % of control
T/C [3]: 100 % of control

CCOC(=O)C1(c2ccccc2)c2c(cnc3ccccc23)C(=O)N1C (configuration not stated)
T/C [4]: 101 % of control
T/C [5]: 97 % of control
T/C [6]: 97 % of control

NS(=O)(=O)c1ncc(C(=O)N2CCN(Cc3ccccc3)CC2)[nH]1
T/C [4]: 103 % of control
T/C [5]: 107 % of control
T/C [6]: 100 % of control

CC(=O)OC1SCC2OC(=O)OC21 (configuration not stated)
T/C [1]: 108 % of control
T/C [2]: 95 % of control
T/C [3]: 96 % of control

COc1cc2c(cc1OC)NCC1COc3c(ccc(OC)c3OC)C1=N2 (configuration not stated)
T/C [7]: 96 % of control
T/C [8]: 88 % of control
T/C [9]: 92 % of control

CCOC(=O)Cc1csc(=S)n1CC
T/C [7]: 98 % of control
T/C [8]: 98 % of control
T/C [9]: 98 % of control
